Laboratory results: ChEMBL document CHEMBL3046355, “Design, synthesis, and herbicidal activities of novel 2-cyanoacrylates containing isoxazole moieties” (2010)

What was measured:
Assay type in all cases: functional
Amaranthus retroflexus [1] = assay: Herbicidal activity against Amaranthus retroflexus assessed as inhibition of weed growth at 75 g/ha using postemergence treatment protocol; details: post-emergence
Amaranthus retroflexus [2] = assay: Herbicidal activity against Amaranthus retroflexus assessed as inhibition of weed growth at 150 g/ha using postemergence treatment protocol; details: post-emergence
Amaranthus retroflexus [3] = assay: Herbicidal activity against Amaranthus retroflexus assessed as inhibition of weed growth at 375 g/ha using postemergence treatment protocol; details: post-emergence
Amaranthus retroflexus [4] = assay: Herbicidal activity against Amaranthus retroflexus assessed as inhibition of weed growth at 750 g/ha using postemergence treatment protocol; details: post-emergence
Brassica napus [5] = assay: Herbicidal activity against Brassica napus (oilseed rape) assessed as inhibition of weed growth at 75 g/ha using postemergence treatment protocol; details: post-emergence
Digitaria sanguinalis [6] = assay: Herbicidal activity against Digitaria sanguinalis (hairy crabgrass) assessed as inhibition of weed growth at 1.5 kg/ha using post-emergence treatment protocol
Amaranthus retroflexus [7] = assay: Herbicidal activity against Amaranthus retroflexus assessed as inhibition of weed growth at 1.5 kg/ha using postemergence treatment protocol; details: post-emergence
Brassica napus [8] = assay: Herbicidal activity against Brassica napus (oilseed rape) assessed as inhibition of weed growth at 150 g/ha using postemergence treatment protocol; details: post-emergence
Brassica napus [9] = assay: Herbicidal activity against Brassica napus (oilseed rape) assessed as inhibition of weed growth at 375 g/ha using postemergence treatment protocol; details: post-emergence
Brassica napus [10] = assay: Herbicidal activity against Brassica napus (oilseed rape) assessed as inhibition of weed growth at 750 g/ha using postemergence treatment protocol; details: post-emergence
Brassica napus [11] = assay: Herbicidal activity against Brassica napus (oilseed rape) assessed as inhibition of weed growth at 1.5 kg/ha using preemergence treatment protocol; details: pre-emergence
Digitaria sanguinalis [12] = assay: Herbicidal activity against Digitaria sanguinalis (hairy crabgrass) assessed as inhibition of weed growth at 1.5 kg/ha using pre-emergence treatment protocol
Echinochloa crus-galli [13] = assay: Herbicidal activity against Echinochloa crus-galli (barnyard grass) assessed as inhibition of weed growth at 1.5 kg/ha using preemergence treatment protocol; details: pre-emergence
Amaranthus retroflexus [14] = assay: Herbicidal activity against Amaranthus retroflexus assessed as inhibition of weed growth at 1.5 kg/ha using preemergence treatment protocol; details: pre-emergence
Brassica napus [15] = assay: Herbicidal activity against Brassica napus (oilseed rape) assessed as inhibition of weed growth at 1.5 kg/ha using postemergence treatment protocol; details: post-emergence
Echinochloa crus-galli [16] = assay: Herbicidal activity against Echinochloa crus-galli (barnyard grass) assessed as inhibition of weed growth at 1.5 kg/ha using postemergence treatment protocol; details: post-emergence

`CCOCCOC(=O)/C(C#N)=C(\NCc1ccc(Cl)nc1)SC` was tested, and the inhibition at 75 g/ha (Amaranthus retroflexus [1]) was 0%, the inhibition at 150 g/ha (Amaranthus retroflexus [2]) was 0% and the inhibition at 375 g/ha (Amaranthus retroflexus [3]) was 18.7%. The inhibition at 750 g/ha (Amaranthus retroflexus [4]) was 87.9%, the inhibition at 75 g/ha (Brassica napus [5]) was 80.9% and the inhibition at 1500 g/ha (Digitaria sanguinalis [6]) was 54.1%. The inhibition at 1500 g/ha (Amaranthus retroflexus [7]) was 100%, the inhibition at 150 g/ha (Brassica napus [8]) was 100% and the inhibition at 375 g/ha (Brassica napus [9]) was 100%. The inhibition at 750 g/ha (Brassica napus [10]) was 100%, the inhibition at 1500 g/ha (Brassica napus [11]) was 47.6% and the inhibition at 1500 g/ha (Digitaria sanguinalis [12]) was 18.8%. It also gave an inhibition at 1500 g/ha (Echinochloa crus-galli [13]) of 3.6%, an inhibition at 1500 g/ha (Amaranthus retroflexus [14]) of 32.4% and an inhibition at 1500 g/ha (Brassica napus [15]) of 100%. It also gave an inhibition at 1500 g/ha (Echinochloa crus-galli [16]) of 55.3%.
